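Where inhibition never reached the appropriate level, the endpoint shown equals the highest concentration tested. Otherwise, values were interpolated linearly from a five-concentration, 48-hour dose response in 96-well plates. The concentration for 50% growth inhibition is given as GI50.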 Activity calls are given as the source filed them. No stated cut-off is given here; in the data, active = GI50 up to about 1.1 µM and inactive = higher.
What was measured:
Experiment in all cases: NCI tumour cell line growth inhibition, 48 h
CAKI-1 = system: CAKI-1
M14 = system: M14
RPMI-8226 = system: RPMI-8226
SK-MEL-28 = system: SK-MEL-28
HCT-15 = system: HCT-15
HL-60 = system: HL-60
RXF 393 = system: RXF 393
OVCAR-4 = system: OVCAR-4
SNB-75 = system: SNB-75
SNB-19 = system: SNB-19
A549 = system: A549
SNB-78 = system: SNB-78
IGROV-1 = system: IGROV-1
LOX IMVI = system: LOX IMVI
UACC-257 = system: UACC-257
EKVX = system: EKVX
SF-268 = system: SF-268
HT-29 = system: HT-29
SK-OV-3 = system: SK-OV-3
OVCAR-8 = system: OVCAR-8

Structure (SMILES)	GI50 (CAKI-1)	GI50 (M14)	GI50 (RPMI-8226)	GI50 (SK-MEL-28)	GI50 (HCT-15) [µM]	GI50 (HL-60)	GI50 (RXF 393)	GI50 (OVCAR-4)	GI50 (SNB-75)	GI50 (SNB-19)	GI50 (A549)	GI50 (SNB-78)	GI50 (IGROV-1)	GI50 (LOX IMVI)	GI50 (UACC-257)	GI50 (EKVX)	GI50 (SF-268)	GI50 (HT-29)	GI50 (SK-OV-3)	GI50 (OVCAR-8)
CC1(C)O[C@@H](C[C@]2(C#N)C[C@H](CCl)OC(C)(C)O2)C[C@@H](C#N)O1	> 100 µM (inactive)	> 100 µM (inactive)	> 100 µM (inactive)	> 100 µM (inactive)	> 100	> 100 µM (inactive)	> 100 µM (inactive)	> 100 µM (inactive)	> 100 µM (inactive)	> 100 µM (inactive)	> 100 µM (inactive)	> 100 µM (inactive)	> 100 µM (inactive)	> 100 µM (inactive)	> 100 µM (inactive)	> 100 µM (inactive)	> 100 µM (inactive)	> 100 µM (inactive)	> 100 µM (inactive)	> 100 µM (inactive)
O=C(Nc1cccc(O)c1)C(=O)C(C(=O)c1ccccc1F)C1OC(=O)c2ccccc21 (stereo not given)	32.9 µM (inactive)	23.5 µM (inactive)	23.4 µM (inactive)	31 µM (inactive)	18.3	28.7 µM (inactive)	18.5 µM (inactive)	23.9 µM (inactive)	17.5 µM (inactive)	19.9 µM (inactive)	29.4 µM (inactive)	24.2 µM (inactive)	38.7 µM (inactive)	22.9 µM (inactive)	84.5 µM (inactive)	34 µM (inactive)	19.6 µM (inactive)	36.7 µM (inactive)	36.1 µM (inactive)	14.6 µM (inactive)

Reference: ChEMBL document CHEMBL1201862, “PubChem BioAssay data set” (2004)
